Laboratory results: publication PMC9457168 (Proceedings of the National Academy of Sciences of the …, 2022)

What was measured:
LCMV = assay: microbe, parasite or virus in culture; type: cell-based, lymphocytic choriomeningitis virus; conditions: Mammarenavirus choriomeningitidis, KB, read-out: EC50 (nM) Mean (SD) LCMV
TPMV = assay: microbe, parasite or virus in culture; type: cell-based; conditions: Thottapalayam virus, HEK-293T, read-out: EC50 (nM) Mean (SD) TPMV
LCMV nucleoprotein = type: cell-based, lymphocytic choriomeningitis virus
LCMV Armstrong strain = type: cell-based, lymphocytic choriomeningitis virus
LCMV WE strain = conditions: mouse, in vivo

Structure (SMILES)	EC50 (LCMV) [nM]	EC50 (TPMV) [nM]	LCMV nucleoprotein production (immunofluorescence) (LCMV nucleoprotein)	infectious viral particles in culture supernatants, pretreatment (LCMV Armstrong strain)	viral propagation, posttreatment (LCMV Armstrong strain)	viral titers in supernatants, pretreatment (LCMV Armstrong strain)	survival rate (LCMV WE strain) [%]	inflammatory foci in liver (pathology) (LCMV WE strain; 30 mg/kg)	serum IFN-γ levels (LCMV WE strain; 30 mg/kg)	serum TNF-α levels (LCMV WE strain; 30 mg/kg)	viral antigen in liver (IHC) (LCMV WE strain; 30 mg/kg)
O=C1c2c(O)c(=O)ccn2N([C@@H]2c3ccccc3SCc3c2ccc(F)c3F)[C@@H]2COCCN12 [BXA, baloxavir acid]	> 1000	> 1000	–	–	–	–	–	–	–	–	–
NC(=O)c1ncn([C@@H]2O[C@H](CO)[C@@H](O)[C@H]2O)n1 [RBV, Ribavirin]	–	–	inhibited only at 1,000 nM	decreased infectious viral particles	significantly reduced viral propagation	increased	20	inflammatory foci were observed	equivalent level to the vehicle-treated mice	higher than that in compound B–treated mice	viral antigens were detected in hepatocytes
